Measurements: paper PMC11851451 (2025)

Tests used:
[1] = test system: TTAA hairpin (ESI-MS, CD) (DNA, hairpin) CGTTAAGCTTTCTTAACG; experiment: circular dichroism titration; conditions: Na+ 100 mM; 50 mM Tris-HCl, 1 mM EDTA, pH 7.4, 25 °C; DNA 5 μM
[2] = test system: AATT hairpin, 5'-biotin (SPR) (DNA, hairpin) CGAAATTGCCTCTGCAATTCG; experiment: biosensor SPR, steady-state one-site fit; conditions: Na+ 100 mM (Table 1 note 10 mM), 50 mM Tris-HCl, 1 mM EDTA
[3] = test system: TTAA hairpin (ESI-MS, CD) (DNA, hairpin) CGTTAAGCTTTCTTAACG; experiment: competition ESI-MS; conditions: NH4+ 100 mM (ammonium acetate); 10% methanol, pH 6.8; AATT and TTAA 10 μM each, compound 20 μM
[4] = test system: d(5'-GCTGCGTTAACGCAGC-3')2 (DNA, duplex) GCTGCGTTAACGCAGC; experiment: X-ray crystallography, low resolution; conditions: antiparallel stacked dimer in minor groove; not deposited
[5] = test system: d(5'-GCTGCGTTAACGCAGC-3')2 (DNA, duplex) GCTGCGTTAACGCAGC; experiment: X-ray crystallography, 1.5 Å; conditions: Ca2+ 600 mM (CaCl2, well); HEPES, PEG 400; antiparallel stacked dimer in minor groove
[6] = test system: AATT hairpin (ESI-MS, CD) (DNA, hairpin) CGAAATTGCCTCTGCAATTCG; experiment: competition ESI-MS; conditions: NH4+ 100 mM (ammonium acetate); 10% methanol, pH 6.8; AATT and TTAA 10 μM each, compound 20 μM
[7] = test system: TTAA hairpin, 5'-biotin (SPR) (DNA, hairpin) CGTTAAGCTTTCTTAACG; experiment: biosensor SPR, steady-state fit; conditions: Na+ 100 mM (Table 1 note 10 mM); 50 mM Tris-HCl, 1 mM EDTA, 0.05% P20, pH 7.4
[8] = test system: TATA hairpin, 5'-biotin (SPR) (DNA, hairpin) CCTATAGTTTTCTATAGG; experiment: biosensor SPR; conditions: Na+ 100 mM (Table 1 note 10 mM); printed as 'Very weak binder'; 50 mM Tris-HCl, 1 mM EDTA, 0.05% P20, pH 7.4; up to 1000 nM
[9] = test system: AATT hairpin, 5'-biotin (SPR) (DNA, hairpin) CGAAATTGCCTCTGCAATTCG; experiment: biosensor SPR, one-site kinetic fit; conditions: Na+ 100 mM (Table 1 note 10 mM); 50 mM Tris-HCl, 1 mM EDTA, 0.05% P20, pH 7.4
[10] = test system: TATA hairpin, 5'-biotin (SPR) (DNA, hairpin) CCTATAGTTTTCTATAGG; experiment: biosensor SPR, steady-state fit; conditions: Na+ 100 mM (Table 1 note 10 mM); 50 mM Tris-HCl, 1 mM EDTA, 0.05% P20, pH 7.4
[11] = test system: TTAA hairpin, 5'-biotin (SPR) (DNA, hairpin) CGTTAAGCTTTCTTAACG; experiment: biosensor SPR, steady-state two-site fit; conditions: Na+ 100 mM; 50 mM Tris-HCl, 1 mM EDTA, pH 7.4; site 1 of 2; KA2 5.5 × 10^6; Table 1 KA 6.9 × 10^6
[12] = test system: TATA hairpin, 5'-biotin (SPR) (DNA, hairpin) CCTATAGTTTTCTATAGG; experiment: biosensor SPR, steady-state two-site fit; conditions: Na+ 100 mM; 50 mM Tris-HCl, 1 mM EDTA, pH 7.4; site 1 of 2; KA2 2.6 × 10^6; Table 1 KA 4.2 × 10^6
[13] = test system: AATT hairpin, 5'-biotin (SPR) (DNA, hairpin) CGAAATTGCCTCTGCAATTCG; experiment: biosensor SPR, one-site fit; conditions: Na+ 100 mM (Table 1 note 10 mM); 50 mM Tris-HCl, 1 mM EDTA, 0.05% P20, pH 7.4

Row | binding [1] | KA ([2]; 0.05% P20, pH 7.4) [M⁻¹] | binding [3] | binding [6] | KA [7] [M⁻¹] | SMILES | other results
1 | yes | 2.1e+06 | yes | – | – | N=C(N)c1ccc2[nH]c(-c3ccc(-c4ccc(C(=N)N)o4)o3)nc2c1 | binding [4]: yes
2 | yes | 6.2e+06 | yes | weak | – | N=C(N)c1ccc2[nH]c(-c3ccc(-c4ccc(C(=N)N)s4)o3)nc2c1 | binding [5]: yes
3 | – | 6.7e+07 | – | – | 2.8e+06 | N=C(N)c1ccc2cc(-c3ccc(-c4ccc(C(=N)N)o4)s3)[nH]c2c1 | KA [10]: 5.2e+06 M⁻¹
4 | yes | 6.5e+06 | – | – | – | N=C(N)c1ccc2cc(-c3ccc(-c4ccc(C(=N)N)s4)o3)[nH]c2c1 | –

The remaining lines, values behind:

Row | SMILES | binding [1] | KA ([2]; 0.05% P20, pH 7.4) [M⁻¹] | binding [3] | binding [6] | KA [7] [M⁻¹] | other results
5 | N=C(N)c1ccc2[nH]c(-c3ccc(-c4ccc(C(=N)N)s4)s3)nc2c1 | yes | – | weak | yes | 1.6e+06 | binding [8]: weak; KA [9]: 2.4e+08 M⁻¹
6 | N=C(N)c1ccc2cc(-c3ccc(-c4ccc(C(=N)N)o4)o3)[nH]c2c1 | yes | 7.3e+06 | – | – | – | –
7 | N=C(N)c1ccc2cc(-c3ccc(-c4ccc(C(=N)N)s4)s3)[nH]c2c1 | – | – | – | – | – | KA1 [11]: 8.8e+06 M⁻¹; KA1 [12]: 6.9e+06 M⁻¹; KA [13]: 1.5e+08 M⁻¹
8 | N=C(N)c1ccc2nc(-c3ccc(-c4ccc(C(=N)N)o4)s3)[nH]c2c1 | yes | – | weak | yes | 1e+06 | KA ([2]; 0.05% P20, pH 7.4 buffer, text b17 prints 3.0 × 10^7): 3.5e+07 M⁻¹; KA [10]: 700000 M⁻¹
